According to patent US20220324865A1 (Bayer Aktiengesellschaft, priority 2018, published 2022):
pIC50: −log10 of the molar value.

These molecules were tested against T1, human EP3 receptor (Homo sapiens, UniProt P43115) (assay: Cellular in vitro assay for determining EP3 receptor activity (human EP3 cell line, sulprostone-stimulated calcium luminescence)). Conditions: CHO cells expressing human EP3 and mitochondrial Clytin; antagonist mode, sulprostone at EC50; read-out: EP3 CHO mtCLY ANTAG IC50.
T1 construct: expressed in transfected cells; host or cells: CHO K1 (Chinese Hamster Ovary), stably co-transfected with Galpha16 and mitochondrial clytin
T1 sequence (P43115 1-390): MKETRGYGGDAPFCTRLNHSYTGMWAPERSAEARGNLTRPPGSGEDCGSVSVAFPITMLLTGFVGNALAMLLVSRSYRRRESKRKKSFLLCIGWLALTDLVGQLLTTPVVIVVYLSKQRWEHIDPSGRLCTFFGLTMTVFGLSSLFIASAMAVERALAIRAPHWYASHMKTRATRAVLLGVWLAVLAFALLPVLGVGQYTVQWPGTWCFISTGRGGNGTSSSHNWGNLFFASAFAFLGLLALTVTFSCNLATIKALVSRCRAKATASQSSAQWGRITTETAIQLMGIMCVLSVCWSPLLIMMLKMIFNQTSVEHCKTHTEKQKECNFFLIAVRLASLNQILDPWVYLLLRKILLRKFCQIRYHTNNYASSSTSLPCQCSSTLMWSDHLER
Assay type: cell-based
In short: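 Antagonist activity was measured as inhibition of the luminescent calcium signal elicited by EC50 sulprostone, following 10 min compound pretreatment. The cell line was recombinant CHO K1 co-expressing human EP3, Gα16 and the photoprotein Clytin, reconstituted with coelenterazine.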

Structure (SMILES)	pIC50
CCc1ccc(C(C)NC(=O)c2cc3c(=O)[nH]c(-c4ccc5ccccc5c4)cn3n2)cc1 (stereo not drawn) [Example 2-39, N-[1-(4-Ethylphenyl)ethyl]-6-(2-naphthyl)-4-oxo-4,5-dihydropyrazolo[1,5-a]pyrazine-2-carboxamide]	8.43
CC(NC(=O)c1cc2c(=O)[nH]c(-c3ccc4ccccc4c3)cn2n1)c1ccc(C(C)(C)C)cc1 (stereo not drawn) [Example 2-40, N-[1-(4-tert.-Butylphenyl)ethyl]-6-(2-naphthyl)-4-oxo-4,5-dihydropyrazolo[1,5-a]pyrazine-2-carboxamide]	8.50
C[C@@H](NC(=O)c1cc2c(=O)[nH]c(-c3ccc4ccccc4c3)cn2n1)c1ccc2ccccc2c1 [Example 2-41, 6-(2-Naphthyl)-N-[(7R)-1-(2-naphthyl)ethyl]-4-oxo-4,5-dihydropyrazolo[1,5-a]pyrazine-2-carboxamide]	8.67
O=C(N[C@H]1CCc2ccccc21)c1cc2c(=O)[nH]c(-c3ccc4ccccc4c3)cn2n1 [Example 2-42, N-[(7S)-2,3-Dihydro-1H-inden-1-yl]-6-(2-naphthyl)-4-oxo-4,5-dihydropyrazolo[1,5-a]pyrazine-2-carboxamide]	8.14
O=C(N[C@@H]1CCCc2ccccc21)c1cc2c(=O)[nH]c(-c3ccc4ccccc4c3)cn2n1 [Example 2-43, 6-(2-Naphthyl)-4-oxo-N-[(7R)-1,2,3,4-tetrahydronaphthalin-1-yl]-4,5-dihydropyrazolo[1,5-a]pyrazine-2-carboxamide]	8.43
Cc1ccc(C(C)NC(=O)c2cc3c(=O)[nH]c(-c4ccc5ccccc5c4)cn3n2)cc1 (stereo not drawn) [Example 2-44, N-[1-(4-Methylphenyl)ethyl]-6-(2-naphthyl)-4-oxo-4,5-dihydropyrazolo[1,5-a]pyrazine-2-carboxamide]	8.89
O=C(Nc1cccc2ncccc12)c1cc2c(=O)[nH]c(-c3ccc4ccccc4c3)cn2n1 [Example 2-45, N-(Chinolin-5-yl)-6-(2-naphthyl)-4-oxo-4,5-dihydropyrazolo[1,5-a]pyrazine-2-carboxamide]	8.22
Cc1nn(C(C)CNC(=O)c2cc3c(=O)[nH]c(-c4ccc5ccccc5c4)cn3n2)c(C)c1Cl (stereo not drawn) [Example 2-46, N-[2-(4-Chlor-3,5-dimethyl-1H-pyrazol-1-yl)propyl]-6-(2-naphthyl)-4-oxo-4,5-dihydropyrazolo[1,5-a]pyrazine-2-carboxamide]	8.53
CC(NC(=O)c1cc2c(=O)[nH]c(-c3ccc4ccccc4c3)cn2n1)c1ccc(Cl)cc1Cl (stereo not drawn) [Example 2-47, N-[1-(2,4-Dichlorphenyl)ethyl]-6-(2-naphthyl)-4-oxo-4,5-dihydropyrazolo[1,5-a]pyrazine-2-carboxamide]	8.49
CC(C)C(NC(=O)c1cc2c(=O)[nH]c(-c3ccc4ccccc4c3)cn2n1)c1ccc(F)cc1 (stereo not drawn) [Example 2-48, N-[1-(4-Fluorophenyl)-2-methylpropyl]-6-(2-naphthyl)-4-oxo-4,5-dihydropyrazolo[1,5-a]pyrazine-2-carboxamide]	8.44

The next lines start with the values.

pIC50	Structure (SMILES)
8.07	CC(NC(=O)c1cc2c(=O)[nH]c(-c3ccc4ccccc4c3)cn2n1)c1ccn(C)n1 (stereo not drawn) [Example 2-49, N-[1-(1-Methyl-1H-pyrazol-3-yl)ethyl]-6-(2-naphthyl)-4-oxo-4,5-dihydropyrazolo[1,5-a]pyrazine-2-carboxamide]
8.94	CC(NC(=O)c1cc2c(=O)[nH]c(-c3ccc4ccccc4c3)cn2n1)c1ccccc1OC(F)F (stereo not drawn) [Example 2-50, N-{1-[2-(Difluormethoxy)phenyl]ethyl}-6-(2-naphthyl)-4-oxo-4,5-dihydropyrazolo[1,5-a]pyrazine-2-carboxamide]
8.69	CC(NC(=O)c1cc2c(=O)[nH]c(-c3ccc4ccccc4c3)cn2n1)c1ccc(Cl)c(Cl)c1 (stereo not drawn) [Example 2-51, N-[1-(3,4-Dichlorphenyl)ethyl]-6-(2-naphthyl)-4-oxo-4,5-dihydropyrazolo[1,5-a]pyrazine-2-carboxamide]
8.36	O=C(NCCc1cccc(F)c1)c1cc2c(=O)[nH]c(-c3ccc4ccccc4c3)cn2n1 [Example 2-52, N-[2-(3-Fluorophenyl)ethyl]-6-(2-naphthyl)-4-oxo-4,5-dihydropyrazolo[1,5-a]pyrazine-2-carboxamide]
8.43	O=C(NCc1cc(F)ccc1F)c1cc2c(=O)[nH]c(-c3ccc4ccccc4c3)cn2n1 [Example 2-53, N-(2,5-Difluorobenzyl)-6-(2-naphthyl)-4-oxo-4,5-dihydropyrazolo[1,5-a]pyrazine-2-carboxamide]
8.15	CCn1ccc(C(C)NC(=O)c2cc3c(=O)[nH]c(-c4ccc5ccccc5c4)cn3n2)n1 (stereo not drawn) [Example 2-54, N-[1-(1-Ethyl-1H-pyrazol-3-yl)ethyl]-6-(2-naphthyl)-4-oxo-4,5-dihydropyrazolo[1,5-a]pyrazine-2-carboxamide]
8.94	COc1ccc(C(C)NC(=O)c2cc3c(=O)[nH]c(-c4ccc5ccccc5c4)cn3n2)cc1OC (stereo not drawn) [Example 2-55, N-[1-(3,4-Dimethoxyphenyl)ethyl]-6-(2-naphthyl)-4-oxo-4,5-dihydropyrazolo[1,5-a]pyrazine-2-carboxamide]
9.10	Cc1c(C(=O)NCCn2ccc(C3CC3)n2)nn2c(C)c(-c3ccc4ccccc4c3)[nH]c(=O)c12 [Example 3-1, N-[2-(3-Cyclopropyl-1H-pyrazol-1-yl)ethyl]-3,7-dimethyl-6-(naphthalen-2-yl)-4-oxo-4,5-dihydropyrazolo[1,5-a]pyrazine-2-carboxamide]
8.92	Cc1c(C(=O)N[C@H](CO)c2ccccc2)nn2c(C)c(-c3ccc4ccccc4c3)[nH]c(=O)c12 [Example 3-2, N-[(1S)-2-Hydroxy-1-phenylethyl]-3,7-dimethyl-6-(naphthalen-2-yl)-4-oxo-4,5-dihydropyrazolo[1,5-a]pyrazine-2-carboxamide]
8.27	Cc1c(C(=O)NCCOCC(F)(F)F)nn2c(C)c(-c3ccc4ccccc4c3)[nH]c(=O)c12 [Example 3-3, 3,7-Dimethyl-6-(naphthalen-2-yl)-4-oxo-N-[2-(2,2,2-trifluoroethoxy)ethyl]-4,5-dihydropyrazolo[1,5-a]pyrazine-2-carboxamide]
8.59	CCn1ccc(C(C)NC(=O)c2nn3c(C)c(-c4ccc5ccccc5c4)[nH]c(=O)c3c2C)n1 (stereo not drawn) [Example 3-4, N-[1-(1-Ethylpyrazol-3-yl)ethyl]-3,7-dimethyl-6-(2-naphthyl)-4-oxo-5H-pyrazolo[1,5-a]pyrazine-2-carboxamide]
8.15	Cc1c(C(=O)NCc2cc[nH]n2)nn2c(C)c(-c3ccc4ccccc4c3)[nH]c(=O)c12 [Example 3-5, 3,7-Dimethyl-6-(naphthalen-2-yl)-4-oxo-N-[(1H-pyrazol-3-yl)methyl]-4,5-dihydropyrazolo[1,5-a]pyrazine-2-carboxamide]
8.32	Cc1c(C(=O)Nc2ccnn2C(C)C)nn2c(C)c(-c3ccc4ccccc4c3)[nH]c(=O)c12 [Example 3-6, 3,7-Dimethyl-6-(naphthalen-2-yl)-4-oxo-N-[1-(propan-2-yl)-1H-pyrazol-5-yl]-4,5-dihydropyrazolo[1,5-a]pyrazine-2-carboxamide]
8.87	Cc1c(C(=O)NCC(C)Cn2cccn2)nn2c(C)c(-c3ccc4ccccc4c3)[nH]c(=O)c12 (stereo not drawn) [Example 3-7, 3,7-Dimethyl-N-[2-methyl-3-(1H-pyrazol-1-yl)propyl]-6-(2-naphthyl)-4-oxo-4,5-dihydropyrazolo[1,5-a]pyrazine-2-carboxamide]
